In patent US20250091995A1, “STABLE CRYSTAL OF 4-OXOQUINOLINE COMPOUND” (Japan Tobacco Inc., priority 2004, published 2025):
Values after ≈ are worked out from the molar mass of the structure shown.

Experiments:
Format in all cases: physicochemical
[1] = Thermal analysis (DSC): enthalpy and extrapolated onset temperature at endothermic peak; conditions: for Endothermic peak Enthalpy / Endothermic peak Extrapolated onset temperature: crystal forms I and II 10° C./min, aluminum open pan, crystal form III 5° C./min, aluminum closed pan
Description: This test aims at the measurement of the enthalpy and extrapolated onset temperature at an endothermic peak on the Differential Scanning Calorimetry (DSC) measurement curve. These values are among the indices of the stability of the above-mentioned crystal form I, crystal form II and crystal form III, and can be used as an index to specify the crystal form. Crystal form I and crystal form II were subjected to measurement using a Differential Scanning Calorimetry (DSC) measurement apparatus (DSC8240, manufactured by Rigaku Corporation), under atmosphere, measurement sample 5±1 mg, temperature rise rate: 10° C./min, aluminum open pan, and alumina oxide as a reference. The enthalpy and extrapolated onset temperature at an endothermic peak on the obtained DSC curve were determined. Crystal form III was subjected to measurement using a DSC measurement apparatus (DSC8240, manufactured by Rigaku Corporation), under atmosphere, measurement sample 5.0+0.5 mg, temperature rise rate: 5° C./min, aluminum closed pan, and alumina oxide as a reference. The enthalpy and extrapolated onset temperature at an endothermic peak on the obtained DSC curve were determined.

[2] = Solubility test in various test solutions and pHs
Description: This test aims at measurement of solubility of the crystal in various test solutions and under various pHs. The solubility is one of the indices of the stability of the above-mentioned crystal form I, crystal form II and crystal form III and can be used also as a reference indices of absorbability of crystal form by living organisms. Each sample (crystal form I type I, crystal form II and crystal form III, ca. 10 mg) was placed in a 10 mL centrifuge tube together with the following test solution (5 mL) and shaken with a shaker (SR-1M; manufactured by […] Co., Ltd.) for 14 hours. After shaking, the mixture was centrifuged (3000 rpm, 20 min) and the supernatant was filtered through 0.2 μm pore size-13 mm diameter polytetrafluoroethylene disk filter (Millex-LG; manufactured by Millipore Corporation). The measurement was performed by high performance liquid chromatography (HPLC).

[3] = Stability test under preservation conditions (appearance, HPLC purity, XRD, DSC); conditions: for Stability under various preservation conditions (overall evaluation): all preservation conditions; for Purity: HPLC
Description: A sample was fixed to an aluminum cell, and the measurement was performed using an X-ray powder diffractometer (RINT 2000/PC Ultima^+, manufactured by Rigaku Corporation, X-ray source: Cu-Kα1 ray, tube voltage: 40 kV, tube electric current: […], scan speed: 5° per min, step width: 0.02°, diffraction angle: 5-40°), based on which the diffraction patterns were obtained. Crystal form I and crystal form II were subjected to measurement using a Differential Scanning Calorimetry (DSC) measurement apparatus (DSC8240, manufactured by Rigaku Corporation), under atmosphere, measurement sample 5±1 mg, temperature rise rate: 10° C./min, aluminum open pan, and alumina oxide as a reference. The enthalpy and extrapolated onset temperature at an endothermic peak on the obtained DSC curve were determined. Crystal form III was subjected to measurement using a DSC measurement apparatus (DSC8240, manufactured by Rigaku Corporation), under atmosphere, measurement sample 5.0+0.5 mg, temperature rise rate: 5° C./min, aluminum closed pan, and alumina oxide as a reference. The enthalpy and extrapolated onset temperature at an endothermic peak on the obtained DSC curve were determined. Each sample (crystal form I and crystal form II, ca. 10 mg) was dissolved in acetonitrile to make an amount of 10 mL and used as a sample solution. This solution ([…]) was applied to high performance liquid chromatography (HPLC) under the following conditions. The peak area of each sample solution was measured by automatic integration, and the purity was determined by the following formula. The purity is shown in the Tables 5 and 6 below. • Detector: UV absorptiometer (wavelength: 259 nm) • Column: CAPCELL PAK MG (inner diameter […], length 15 cm, particle size 5 μm, manufactured by Shiseido Co., Ltd. • Column temperature: constant temperature around 40° C. • Mobile phase A: trifluoroacetic acid solution (1:1000) • Mobile phase B: solution of trifluoroacetic acid in acetonitrile (1:1000) • Gradient program: As shown in the following Table 2, the mixing ratio of mobile phase A and mobile phase B is changed to control concentration gradient. A sample (crystal form III, ca. 50 mg) was dissolved in a mixture (4:1) of mobile phase B and mobile phase A to make an amount of 50 mL, which was used as a sample solution. This solution (1 mL) was precisely measured and a mixture (4:1) of mobile phase B and mobile phase A was added to precisely make an amount of 100 mL, which was used as a standard solution. The sample solution and standard solution ([…]) was applied to high performance liquid chromatography (HPLC) under the following conditions. The peak area of each solution was measured by automatic integration, and the purity was determined by the following formula. The purity is shown in the Table 7 below. • Detector: UV absorptiometer (wavelength: 259 nm) • Column: Waters XTerra MC C18 ([…], manufactured by Waters) • Column temperature: constant temperature around 40° C. • Mobile phase A: phosphoric acid is added to dipotassium hydrogenphosphate solution (1>1149) to adjust pH to 7.0 • Mobile phase B: acetonitrile • Gradient program: As shown in the following Table 3, the mixing ratio of mobile phase A and mobile phase B is changed to control concentration gradient. A stability test of each sample was performed under the following preservation conditions. The results of crystal form I are shown in Table 5, the results of crystal form II are shown in Table 6, and the results of crystal form III are shown in Table 7.

[4] = Japanese Pharmacopoeia 1st fluid, pH 1.2, shaken 14 hours
[5] = Japanese Pharmacopoeia 2nd fluid, pH 6.8, shaken 14 hours
[6] = McIlvaine buffer pH 2.2, shaken 14 hours
[7] = McIlvaine buffer pH 4, shaken 14 hours
[8] = McIlvaine buffer pH 5, shaken 14 hours
[9] = McIlvaine buffer pH 6.8, shaken 14 hours
[10] = McIlvaine buffer pH 8, shaken 14 hours
[11] = Purified water, shaken 14 hours
[12] = condition 2: 80° C., closed container, preserved for 3 days
[13] = condition 3: 80° C., open container, preserved for 3 days
[14] = condition 4: 60° C., closed container, preserved for 3 weeks
[15] = condition 5: 60° C., open container, preserved for 3 weeks
[16] = condition 6: 60° C./75% R.H., open container, preserved for 3 weeks
[17] = condition 6: 60° C./75% R.H., closed container, preserved for 3 weeks

For `COc1cc2c(cc1Cc1cccc(Cl)c1F)c(=O)c(C(=O)O)cn2[C@H](CO)C(C)C` [Crystal form II, 6-(3-chloro-2-fluorobenzyl)-1-[(S)-1-hydroxymethyl-2-methylpropyl]-7-methoxy-4-oxo-1,4-dihydroquinoline-3-carboxylic acid], the “Endothermic peak Enthalpy” value [1] was 53.542 J/g, the “Endothermic peak Extrapolated onset temperature” value [1] was 151.2 °C and the Solubility [2, 4] was 0.9 µg/mL (≈ 2.01 µM). For the same compound, the Solubility [2, 5] was 5.8 µg/mL (≈ 12.9 µM), the Solubility [2, 6] was 1.9 µg/mL (≈ 4.24 µM) and the Solubility [2, 7] was 0.8 µg/mL (≈ 1.79 µM). It also gave a Solubility [2, 8] of 0.4 µg/mL (≈ 0.893 µM), a Solubility [2, 9] of 6.3 µg/mL (≈ 14.1 µM) and a Solubility [2, 10] of 84 µg/mL (≈ 188 µM). For the same compound, the solubility at 14 h ([2]; McIlvaine buffer, pH 6, aqueous buffer, thermodynamic from solid, McIlvaine buffer pH 6, shaken 14 hours) was 1 µg/mL (≈ 2.23 µM), the Solubility [2, 11] was 0.5 µg/mL (≈ 1.12 µM) and the “Solubility compared between crystal forms” value ([2]; all test solutions of Table 4) was “higher solubility than crystal form III”. For the same compound, the “Stability under various preservation conditions (overall evaluation)” value (from here on “Stability … (overall evaluation)”) [3] was “extremely stable”, the Purity ([3]; condition 1: Initial) was 98.9% and the Appearance [3, 12] was “No change”. For the same compound, the “XRD (X-ray powder diffraction pattern vs initial)” value [3, 12] was “No change”, the Purity [3, 12] was 98.9% and the Appearance [3, 13] was “No change”. For the same compound, the “XRD (X-ray powder diffraction pattern vs initial)” value [3, 13] was “No change”, the Purity [3, 13] was 98.8% and the Appearance [3, 14] was “No change”. The “XRD (X-ray powder diffraction pattern vs initial)” value [3, 14] was “No change”, the Purity [3, 14] was 98.9% and the Appearance [3, 15] was “No change”. The “XRD (X-ray powder diffraction pattern vs initial)” value [3, 15] was “No change”, the Purity [3, 15] was 98.8% and the Appearance [3, 16] was “No change”. The “XRD (X-ray powder diffraction pattern vs initial)” value [3, 16] was “No change” and the Purity [3, 16] was 98.9%.

With `COc1cc2c(cc1Cc1cccc(Cl)c1F)c(=O)c(C(=O)O)cn2[C@H](CO)C(C)C` [Crystal form I, 6-(3-chloro-2-fluorobenzyl)-1-[(S)-1-hydroxymethyl-2-methylpropyl]-7-methoxy-4-oxo-1,4-dihydroquinoline-3-carboxylic acid] the “Endothermic peak Enthalpy” value [1] was 51.080 J/g, the “Endothermic peak Extrapolated onset temperature” value [1] was 150.3 °C and the “Stability … (overall evaluation)” value [3] was “unstable”. For the same compound, the Purity ([3]; condition 1: Initial) was 99.1%, the Appearance [3, 12] was “No change” and the “XRD (X-ray powder diffraction pattern vs initial)” value [3, 12] was “No change”. The Purity [3, 12] was 99.1%, the Appearance [3, 13] was “No change” and the “XRD (X-ray powder diffraction pattern vs initial)” value [3, 13] was “a part of the sample showed crystal transition to crystal form II”. The Purity [3, 13] was 99.1%, the Appearance [3, 14] was “No change” and the “XRD (X-ray powder diffraction pattern vs initial)” value [3, 14] was “No change”. For the same compound, the Purity [3, 14] was 99.1%, the Appearance [3, 15] was “No change” and the “XRD (X-ray powder diffraction pattern vs initial)” value [3, 15] was “a part of the sample showed crystal transition to crystal form II”. For the same compound, the Purity [3, 15] was 99.1%, the Appearance [3, 16] was “No change” and the “XRD (X-ray powder diffraction pattern vs initial)” value [3, 16] was “No change”. It also gave a Purity [3, 16] of 99.1%.

With `COc1cc2c(cc1Cc1cccc(Cl)c1F)c(=O)c(C(=O)O)cn2[C@H](CO)C(C)C` [Crystal form III, 6-(3-chloro-2-fluorobenzyl)-1-[(S)-1-hydroxymethyl-2-methylpropyl]-7-methoxy-4-oxo-1,4-dihydroquinoline-3-carboxylic acid] the “Stability among three crystal forms judged from enthalpy and extrapolated onset temperature” value [1] was “most stable form”, the “Endothermic peak Enthalpy” value [1] was 81.404 J/g and the “Endothermic peak Extrapolated onset temperature” value [1] was 162.1 °C. For the same compound, the Solubility [2, 4] was <0.1 µg/mL, the Solubility [2, 5] was 2.4 µg/mL (≈ 5.36 µM) and the Solubility [2, 6] was <0.1 µg/mL. For the same compound, the Solubility [2, 7] was <0.1 µg/mL, the Solubility [2, 8] was <0.1 µg/mL and the Solubility ([2]; McIlvaine buffer pH 6, shaken 14 hours) was 0.7 µg/mL (≈ 1.56 µM). For the same compound, the Solubility [2, 9] was 0.7 µg/mL (≈ 1.56 µM), the Solubility [2, 10] was 23 µg/mL (≈ 51.4 µM) and the Solubility [2, 11] was <0.1 µg/mL. For the same compound, the “Stability … (overall evaluation)” value [3] was “extremely stable”, the Purity ([3]; condition 1: Initial) was 98.71% and the Appearance [3, 12] was “No change”. For the same compound, the “XRD (X-ray powder diffraction pattern vs initial)” value [3, 12] was “No change”, the Purity [3, 12] was 98.68% and the Appearance [3, 13] was “No change”. For the same compound, the “XRD (X-ray powder diffraction pattern vs initial)” value [3, 13] was “No change”, the Purity [3, 13] was 98.69% and the Appearance [3, 14] was “No change”. For the same compound, the “XRD (X-ray powder diffraction pattern vs initial)” value [3, 14] was “No change”, the Purity [3, 14] was 98.67% and the Appearance [3, 15] was “No change”. The “XRD (X-ray powder diffraction pattern vs initial)” value [3, 15] was “No change”, the Purity [3, 15] was 98.66% and the Appearance [3, 17] was “No change”. The “XRD (X-ray powder diffraction pattern vs initial)” value [3, 17] was “No change” and the Purity [3, 17] was 98.65%.
